{"source": "patent US12144910B2", "about": "“Methods of coating antimicrobial peptides on the biomaterial and the biomaterial coated thereby” (priority 2019, dated 2024)", "key": {"S. aureus [1]": {"tested_on": "S. aureus", "procedure": "Minimum inhibitory concentration (MIC) and minimum bactericidal concentration (MBC). […] The suspended AMPs were then loaded into wells of 96-well microplates and incubated at 37° C. overnight with gentle agitation at 100 rpm. The absorbance was measured by SpectraMax 190 microplate reader at 600 nm. The remaining cfu in the mixture was counted after plating on agar plate. Minimum inhibitory concentration (MIC) was defined as the lowest AMP concentration to keep the solution with the same absorbance as that of culture medium without bacteria. […] Alternatively, the MIC of coated AMPs was also determined. […] The free form AMPs as well as surfactant were dissolved in 200 μl sterile media (cell culture medium or human urine) and used as a control for quantitation. The potency of antimicrobial activity was expressed as the dilution folds to reach the MIC, in which no bacteria grow in the medium. At least three independent experiments were performed to determine the value."}, "E. coli ATCC 23502": {"tested_on": "E. coli ATCC 23502", "test": "Potency of antimicrobial activity as dilution folds to reach the MIC", "type": "cell-based", "details": "for Potency (x) MIC to E. coli, Serum / Potency (x) MIC to E. coli, Urine: dilution fold, free form, 1× = 8 μg AMP; for Potency (x) MIC to E. coli, Serum: 16 μg PXB and/or 25 μg SDS in 200 μl serum; for Potency (x) MIC to E. coli, Urine: 16 μg PXB and/or 25 μg SDS in 200 μl urine", "method": "Minimum inhibitory concentration (MIC) and minimum bactericidal concentration (MBC). […] Alternatively, the MIC of coated AMPs was also determined. […] The urine and serum were changed daily. Two μl of the incubation urine or serum being replaced (containing released/free SAAP159+PXB) or its dilutions were dotted onto the top layer of the microbe-containing agar plates and incubated at 37° C. overnight, following which the assessment of formation of growth inhibition zone was carried out. Defined amounts of mixed antimicrobials were used as a standard for the quantitation of the released antimicrobials. The amount of antimicrobial mixture which was able to form visible inhibition zone on the agar plate is defined as one unit of antimicrobial activity. […] The absorbance at 600 nm was then determined by SpectraMax 190 microplate reader. Minimal inhibitory concentration (MIC), which is defined as the concentration of (diluted) sample serum or urine which is able to keep the absorbance of the bacteria-containing media no different to that of media only, was determined. The potency of antimicrobial activity, which is defined as the dilution fold of antimicrobial-containing urine or serum that achieves MIC, was also determined."}, "[2]": {"tested_on": "Human bladder carcinoma cell line (NTUB1)", "test": "Cytotoxicity assay (WST-1)", "details": "for Potency (x) Cytotoxicity to NTUB1 IC50: dilution fold, free form, 1× = 8 μg AMP, 16 μg PXB and/or 25 μg SDS in 200 μl", "procedure": "NTUB1 cells were maintained at 37° C. in a humidified incubator under 5% CO2 atmosphere in RPMI1640 containing 10% FBS, 100 U/ml penicillin and 100 μg/ml streptomycin. The NTUB1 cells were seeded in the respective wells of a 96-well plate at a density of 1.5×10^4 cells/1000 for 24 hr. The cells were further incubated in 2000 free antimicrobial/surfactant or components released from silicone disc after overnight incubation. After 20 hr incubation, 900 of fresh culture medium and 100 of WST-1 agent (Roche, Basel, Switzerland) were added to the drained wells and incubated for two 2 hr before measuring the absorbance by SpectraMax 190 microplate reader at 450 nm. Percent of cytotoxicity was determined using the following formula: % cytotoxicity=[(A450sample−A450positive control)/(A450negative control−A450positive control)]. Positive control was NTUB1 cells only, whereas negative control was medium without cells."}, "mouse red blood cells": {"tested_on": "mouse red blood cells", "test": "Hemolytic assay", "details": "dilution fold; free form, 1× = 8 μg AMP, 16 μg PXB and/or 25 μg SDS in 200 μl", "procedure": "The blood cells were pelleted and rinsed three times with 10% FBS in RPMI1640, and re-suspended in the same buffer. The erythrocytes (1.5×10^7 cells) were then added to the solution containing free dual AMP/surfactant or overnight released components from silicone discs in 200 μl and incubation at 37° C. for one hr. The supernatants (150 μl) after centrifugation were transferred to 96-well plate for the measurement of the absorbance of released hemoglobin by SpectraMax 190 microplate reader (Molecular Devices, CA, USA) at 414 nm. Percent hemolysis was calculated using the following formula: % hemolysis=[(A414sample−A414medium)/(A4140.1% Triton-X 100−A414medium)]. Zero and 100% hemolysis were determined in medium and 0.1% Triton-X 100, respectively."}, "[3]": {"type": "physicochemical", "design": "time stable in human urine: unit not given here", "details": "for time stable in human urine: coated onto the microplate by SDS, examined under the microscope; for stability in urine: one-day incubation; for time stable in 10% FBS: single AMP coated by SDBS on polystyrene; for time stable in urine: single AMP coated by SDS (two-step) on polystyrene, SDS-PAGE"}, "S. aureus [4]": {"tested_on": "S. aureus", "test": "Inhibition zone assay on agar plate", "type": "cell-based, Staphylococcus aureus", "details": "free AMP, 2 μl dotted on agar plate", "method": "(§1) Inhibition zone. Bacteria were cultured in Luria-Bertani broth and plated on Luria-Bertani agar for E. coli (ATCC 23502) and Pseudomonas aeruginosa (ATCC 27853) at 37° C. Staphylococcus aureus (ATCC 6538P) was cultured and plated in/on tryptic soy broth/agar. Candida albicans (ATCC 14053) were cultured in/on YM broth/agar at 30° C. Five ml of low melting agar (1%) mixed with 100 μl of overnight-cultured bacteria was spread on top of 1% regular agar plate. Two μl of antimicrobial peptides at various concentrations were dotted on the top layer of microbe-containing agar plates and incubated overnight for the development of inhibition zone."}, "P. aeruginosa 27853": {"tested_on": "P. aeruginosa 27853", "test": "Inhibition zone assay on agar plate", "type": "cell-based, Pseudomonas aeruginosa", "details": "free AMP, 2 μl dotted on agar plate", "method": "as §1"}, "[5]": {"details": "free AMP, LB, 3.5 × 10^5 cfu/ml"}}, "note": "Like-named read-outs stand apart in the source and are kept apart here. Non-standard residues stand in square brackets, D forms with d. No end group written: not given here."}
{"molecule": "CC[C@H](C)[C@H](NC(=O)[C@H](CCCNC(=N)N)NC(=O)[C@H](CCCNC(=N)N)NC(=O)[C@H](CC(C)C)NC(=O)[C@H](Cc1c[nH]c2ccccc12)NC(=O)[C@H](C)NC(=O)[C@H](CCCCN)NC(=O)[C@@H](NC(=O)[C@H](CCCNC(=N)N)NC(=O)[C@H](CCCNC(=N)N)NC(=O)[C@H](CC(C)C)NC(=O)[C@@H](N)Cc1c[nH]c2ccccc12)[C@@H](C)CC)C(=O)N[C@@H](CCCCN)C(=O)N[C@@H](C)C(=O)O", "note": "[RRIKA]", "values": [{"measurement": "MBC", "setting": "S. aureus [1]", "value": 128, "unit": "µg/mL"}, {"measurement": "MIC", "setting": "S. aureus [1]", "value": 64, "unit": "µg/mL"}, {"measurement": "MBC", "setting": "E. coli 23502; 23502", "value": 128, "unit": "µg/mL"}, {"measurement": "MIC", "setting": "E. coli 23502; 23502", "value": 128, "unit": "µg/mL"}]}
{"molecule": "CCCCCCCCCCCCOS(=O)(=O)[O-].[Na+]", "note": "[SDS, sodium dodecyl sulfate]", "values": [{"measurement": "Potency (x) MIC to E. coli, Serum", "setting": "E. coli ATCC 23502", "value": "<1", "unit": "x"}, {"measurement": "Potency (x) MIC to E. coli, Urine", "setting": "E. coli ATCC 23502", "value": "<1", "unit": "x"}, {"measurement": "bactericidal activity against E. coli 23502 in urine or in 10% FBS", "setting": "E. coli ATCC 23502; surfactant alone up to maximal amount (14 μg SDS, 25 μg SDBS) in 200 μl", "value": "did not exert bactericidal activity"}, {"measurement": "cytotoxicity toward NTUB1 cells", "setting": "[2]; 25 μg in 200 μl", "value": 99, "unit": "%"}, {"measurement": "Potency (x) Cytotoxicity to NTUB1 IC50", "setting": "[2]", "value": "1-2 x"}, {"measurement": "cytotoxicity toward NTUB1 cells", "setting": "[2]; half of the total amount (of 25 μg in 200 μl)", "value": 35, "unit": "%"}, {"measurement": "cytotoxicity toward human bladder cells (NTUB1) (in words)", "setting": "[2]; maximal amount that may be coated and released (SDS 14 μg; AMP pairs 12 μg each) in 200 μl", "value": "low cytotoxicity"}, {"measurement": "Potency (x) Hemolysis of RBC HC50", "setting": "mouse red blood cells", "value": "1-2 x"}]}
{"molecule": "GRFKRFRKKFKKLFKKLSPVIPLLHLG (G[dR][dF][dK][dR][dF][dR][dK][dK][dF][dK][dK][dL][dF][dK][dK][dL][dS][dP][dV][dI][dP][dL][dL][dH][dL]G) [L-BMAP27]", "values": [{"measurement": "time stable in human urine", "setting": "[3]", "value": "at least three"}]}
{"molecule": "GRFKRFRKKFKKLFKKLSPVIPLLHLG-OH (All in D form) (G[dR][dF][dK][dR][dF][dR][dK][dK][dF][dK][dK][dL][dF][dK][dK][dL][dS][dP][dV][dI][dP][dL][dL][dH][dL]G-OH) [D-BMAP27]", "values": [{"measurement": "time stable in human urine", "setting": "[3]", "value": "at least three"}]}
{"molecule": "H-FIHHIIGGLFSAGKAIHRLIRRRRR-OH [TP4, antimicrobial peptide Piscidins 4]", "values": [{"measurement": "stability in urine", "setting": "[3]; coated by SDBS on microplates", "value": "stable in urine"}, {"measurement": "stability in urine", "setting": "[3]; coated by SOS or SDSn on microplates", "value": "not those coated by SOS or SDSn"}, {"measurement": "time stable in human urine", "setting": "[3]", "value": "at least three"}]}
{"molecule": "H-FIHHIIGGLFSAGKAIHRLIRRRRR-OH [TP4-A12,15I]", "values": [{"measurement": "time stable in 10% FBS", "setting": "[3]", "value": "two"}]}
{"molecule": "H-RRLIRLILRLLR-NH2 [RR12]", "values": [{"measurement": "antimicrobial activity by inhibition zone (in words)", "setting": "S. aureus [4]", "value": "very active"}, {"measurement": "time stable in 10% FBS", "setting": "[3]", "value": "two"}, {"measurement": "MBC", "setting": "S. aureus [1]", "value": 4, "unit": "µg/mL"}, {"measurement": "MIC", "setting": "S. aureus [1]", "value": 4, "unit": "µg/mL"}, {"measurement": "MBC", "setting": "E. coli 23502; 23502", "value": 4, "unit": "µg/mL"}, {"measurement": "MIC", "setting": "E. coli 23502; 23502", "value": 4, "unit": "µg/mL"}]}
{"molecule": "KWKLFKKIGIGAVLKVLKKG-NH2 [T18,19K]", "values": [{"measurement": "time stable in urine", "setting": "[3]", "value": 6, "unit": "days"}, {"measurement": "time stable in serum", "setting": "[3]; single AMP coated by SDS on polystyrene", "value": "not stable"}, {"measurement": "MBC", "setting": "S. aureus [1]; free AMP, TSB, 4 × 10^5 cfu/ml", "value": ">512", "unit": "µg/mL"}, {"measurement": "MIC", "setting": "S. aureus [1]; free AMP, TSB, 4 × 10^5 cfu/ml", "value": ">512", "unit": "µg/mL"}, {"measurement": "MBC", "setting": "E. coli 23502; [5]", "value": 64, "unit": "µg/mL"}, {"measurement": "MIC", "setting": "E. coli 23502; [5]", "value": 64, "unit": "µg/mL"}]}
{"molecule": "LKRLYKRVFRLLKRYYRQLRRPVR-OH [SAAP159]", "values": [{"measurement": "time stable in human urine", "setting": "[3]", "value": "at least three"}, {"measurement": "time stable in urine", "setting": "[3]", "value": 12, "unit": "days"}, {"measurement": "MBC", "setting": "S. aureus [1]", "value": ">512", "unit": "µg/mL"}, {"measurement": "MIC", "setting": "S. aureus [1]", "value": 512, "unit": "µg/mL"}, {"measurement": "MBC", "setting": "E. coli 23502; 23502", "value": 64, "unit": "µg/mL"}, {"measurement": "MIC", "setting": "E. coli 23502; 23502", "value": 64, "unit": "µg/mL"}]}
{"molecule": "Polymyxin B [PXB, reference compound]", "values": [{"measurement": "Potency (x) MIC to E. coli, Serum", "setting": "E. coli ATCC 23502", "value": 512, "unit": "x"}, {"measurement": "Potency (x) MIC to E. coli, Urine", "setting": "E. coli ATCC 23502", "value": 128, "unit": "x"}, {"measurement": "Potency (x) Cytotoxicity to NTUB1 IC50", "setting": "[2]", "value": "<1", "unit": "x"}, {"measurement": "Potency (x) Hemolysis of RBC HC50", "setting": "mouse red blood cells", "value": "<1", "unit": "x"}]}
{"molecule": "RFRRLRKKWRKRLKKI-NH2 [T9W]", "values": [{"measurement": "antimicrobial activity by inhibition zone (in words)", "setting": "P. aeruginosa 27853", "value": "preferentially killed"}, {"measurement": "time stable in urine", "setting": "[3]", "value": 6, "unit": "days"}, {"measurement": "MBC", "setting": "S. aureus [1]", "value": ">512", "unit": "µg/mL"}, {"measurement": "MIC", "setting": "S. aureus [1]", "value": ">512", "unit": "µg/mL"}, {"measurement": "MBC", "setting": "E. coli 23502; 23502", "value": ">512", "unit": "µg/mL"}, {"measurement": "MIC", "setting": "E. coli 23502; 23502", "value": ">512", "unit": "µg/mL"}]}
{"molecule": "RGLRRLGRKIVHVVKKYLPTVLRIIRIA-NH2 [SMAP28-3]", "values": [{"measurement": "time stable in human urine", "setting": "[3]", "value": "at least three"}]}
{"molecule": "RGLRRLGRKIVHVVKKYLPTVLRIIRRL-NH2 [SMAP28-3 + 2]", "values": [{"measurement": "time stable in human urine", "setting": "[3]", "value": "at least three"}, {"measurement": "time stable in 10% FBS", "setting": "[3]", "value": "one"}, {"measurement": "MBC", "setting": "S. aureus [1]", "value": 32, "unit": "µg/mL"}, {"measurement": "MIC", "setting": "S. aureus [1]", "value": 32, "unit": "µg/mL"}, {"measurement": "MBC", "setting": "E. coli 23502; 23502", "value": 8, "unit": "µg/mL"}, {"measurement": "MIC", "setting": "E. coli 23502; 23502", "value": 4, "unit": "µg/mL"}]}
